Reference: ChEMBL document CHEMBL1909046, “DrugMatrix in vitro pharmacology data”

Experiments:
[1] = biological target: 5-hydroxytryptamine receptor 6 (Homo sapiens, UniProt P50406); assay type: cell membranes, HeLa, Membrane; conditions: hela; note: in other assays of this panel Not Active means under 50% inhibition at 10 µM
[2] = biological target: T1, Alpha-1A adrenergic receptor (Rattus norvegicus, UniProt P43140); experiment: DRUGMATRIX: Alpha-1A adrenergic receptor radioligand binding (ligand: prazosin); assay type: cell membranes, Wistar, Submaxillary gland, Membrane; conditions: Not Active = under 50% inhibition at 10 µM
T1 sequence (P43140 whole entry): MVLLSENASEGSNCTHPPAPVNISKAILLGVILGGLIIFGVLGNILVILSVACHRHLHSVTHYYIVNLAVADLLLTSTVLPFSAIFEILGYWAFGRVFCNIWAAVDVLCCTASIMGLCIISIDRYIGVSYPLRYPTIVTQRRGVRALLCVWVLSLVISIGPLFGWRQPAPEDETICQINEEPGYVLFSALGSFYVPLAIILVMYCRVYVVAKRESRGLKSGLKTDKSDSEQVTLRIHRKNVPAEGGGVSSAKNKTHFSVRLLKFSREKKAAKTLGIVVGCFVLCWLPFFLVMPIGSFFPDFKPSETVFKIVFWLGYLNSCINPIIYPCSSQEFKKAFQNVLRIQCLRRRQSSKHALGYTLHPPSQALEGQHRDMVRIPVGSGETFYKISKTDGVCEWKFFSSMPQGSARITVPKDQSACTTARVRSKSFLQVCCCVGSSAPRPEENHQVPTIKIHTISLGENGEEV

[3] = biological target: Nitric oxide synthase 1 (Rattus norvegicus, UniProt P29476); assay type: tissue-based, Cerebellum; note: in other assays of this panel Not Active means under 50% inhibition at 10 µM
Chain of Nitric oxide synthase 1 (P29476 whole entry): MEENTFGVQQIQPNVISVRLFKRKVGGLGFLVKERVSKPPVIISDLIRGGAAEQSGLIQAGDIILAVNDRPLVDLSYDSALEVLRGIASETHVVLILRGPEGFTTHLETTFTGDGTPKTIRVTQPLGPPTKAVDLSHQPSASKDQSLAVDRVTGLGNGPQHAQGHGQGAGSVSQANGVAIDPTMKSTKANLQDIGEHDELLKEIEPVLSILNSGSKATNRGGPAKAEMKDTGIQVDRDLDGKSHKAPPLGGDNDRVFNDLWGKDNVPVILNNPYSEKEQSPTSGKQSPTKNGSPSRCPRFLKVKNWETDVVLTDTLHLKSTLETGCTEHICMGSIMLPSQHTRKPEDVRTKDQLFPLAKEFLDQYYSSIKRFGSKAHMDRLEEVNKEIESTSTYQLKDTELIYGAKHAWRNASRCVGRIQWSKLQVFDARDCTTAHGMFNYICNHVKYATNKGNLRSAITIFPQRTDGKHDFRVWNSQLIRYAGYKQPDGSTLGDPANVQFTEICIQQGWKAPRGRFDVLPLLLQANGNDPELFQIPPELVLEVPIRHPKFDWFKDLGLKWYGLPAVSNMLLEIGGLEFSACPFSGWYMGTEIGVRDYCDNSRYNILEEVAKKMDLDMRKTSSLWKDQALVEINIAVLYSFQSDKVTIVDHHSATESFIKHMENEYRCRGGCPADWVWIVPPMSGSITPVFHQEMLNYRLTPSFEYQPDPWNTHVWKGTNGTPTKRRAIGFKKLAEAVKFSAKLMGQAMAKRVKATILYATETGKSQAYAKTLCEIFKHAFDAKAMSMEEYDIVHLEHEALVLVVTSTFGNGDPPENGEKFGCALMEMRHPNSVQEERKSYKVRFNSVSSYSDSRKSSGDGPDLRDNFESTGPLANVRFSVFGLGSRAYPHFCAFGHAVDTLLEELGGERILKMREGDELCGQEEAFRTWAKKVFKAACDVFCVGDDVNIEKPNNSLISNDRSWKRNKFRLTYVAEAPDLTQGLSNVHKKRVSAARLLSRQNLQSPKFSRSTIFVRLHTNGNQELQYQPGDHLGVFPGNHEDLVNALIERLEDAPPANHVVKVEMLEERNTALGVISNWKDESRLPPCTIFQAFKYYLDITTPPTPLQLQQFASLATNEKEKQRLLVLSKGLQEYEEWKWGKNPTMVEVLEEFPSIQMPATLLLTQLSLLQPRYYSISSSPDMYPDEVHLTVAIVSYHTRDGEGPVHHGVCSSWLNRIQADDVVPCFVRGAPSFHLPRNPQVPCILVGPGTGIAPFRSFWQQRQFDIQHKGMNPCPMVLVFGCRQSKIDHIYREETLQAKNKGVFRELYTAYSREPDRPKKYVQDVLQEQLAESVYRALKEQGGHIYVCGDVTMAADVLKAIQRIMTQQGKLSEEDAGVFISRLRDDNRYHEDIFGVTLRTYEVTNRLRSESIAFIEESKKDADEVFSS

[4] = biological target: Vasopressin V1a receptor (Homo sapiens, UniProt P37288); assay type: cell membranes, Membrane; conditions: hek293; note: in other assays of this panel Not Active means under 50% inhibition at 10 µM
Chain of Vasopressin V1a receptor (P37288 whole entry): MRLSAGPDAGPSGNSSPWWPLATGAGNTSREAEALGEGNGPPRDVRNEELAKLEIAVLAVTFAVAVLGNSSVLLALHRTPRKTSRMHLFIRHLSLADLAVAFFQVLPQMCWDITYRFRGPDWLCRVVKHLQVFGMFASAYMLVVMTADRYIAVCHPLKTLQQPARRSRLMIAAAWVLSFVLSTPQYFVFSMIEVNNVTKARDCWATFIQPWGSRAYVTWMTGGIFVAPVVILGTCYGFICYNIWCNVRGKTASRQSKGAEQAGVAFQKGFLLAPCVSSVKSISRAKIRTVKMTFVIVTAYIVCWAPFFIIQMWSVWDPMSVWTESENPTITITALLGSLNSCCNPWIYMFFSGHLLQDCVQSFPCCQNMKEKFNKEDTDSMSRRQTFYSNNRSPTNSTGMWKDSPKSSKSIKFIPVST

[5] = biological target: Mitogen-activated protein kinase 3 (Homo sapiens, UniProt P27361); experiment: DRUGMATRIX: Protein Serine/Threonine Kinase, ERK1 enzyme inhibition (substrate: Myelin Basic Protein); parameters: species or system Escherichia coli; conditions: Not Active = under 50% inhibition at 10 µM
Chain of Mitogen-activated protein kinase 3 (P27361 whole entry): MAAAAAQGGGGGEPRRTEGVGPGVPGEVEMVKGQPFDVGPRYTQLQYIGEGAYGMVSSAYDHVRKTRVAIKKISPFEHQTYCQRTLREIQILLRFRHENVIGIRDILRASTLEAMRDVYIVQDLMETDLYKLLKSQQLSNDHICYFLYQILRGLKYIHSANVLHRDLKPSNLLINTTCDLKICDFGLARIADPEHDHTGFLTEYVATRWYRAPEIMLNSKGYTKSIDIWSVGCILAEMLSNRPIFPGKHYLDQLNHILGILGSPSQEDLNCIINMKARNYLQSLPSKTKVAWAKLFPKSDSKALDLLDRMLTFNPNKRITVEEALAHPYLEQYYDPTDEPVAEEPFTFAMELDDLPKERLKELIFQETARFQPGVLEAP

[6] = biological target: T2, Vasoactive intestinal polypeptide receptor 1 (Homo sapiens, UniProt P32241); assay type: cell membranes, Membrane; conditions: ht-29; note: in other assays of this panel Not Active means under 50% inhibition at 10 µM
T2 sequence (P32241 whole entry): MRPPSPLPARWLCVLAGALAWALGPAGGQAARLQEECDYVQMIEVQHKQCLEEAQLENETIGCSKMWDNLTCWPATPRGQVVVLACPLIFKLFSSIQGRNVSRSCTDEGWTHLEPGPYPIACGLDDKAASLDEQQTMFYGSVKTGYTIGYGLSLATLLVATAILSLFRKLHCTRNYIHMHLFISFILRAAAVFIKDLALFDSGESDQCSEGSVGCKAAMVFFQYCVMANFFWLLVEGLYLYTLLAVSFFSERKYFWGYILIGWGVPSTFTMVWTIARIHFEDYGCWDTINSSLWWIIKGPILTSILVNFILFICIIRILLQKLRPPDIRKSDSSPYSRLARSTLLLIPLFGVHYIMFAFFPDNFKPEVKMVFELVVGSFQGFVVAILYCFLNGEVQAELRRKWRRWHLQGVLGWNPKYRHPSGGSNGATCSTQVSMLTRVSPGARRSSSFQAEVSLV

Chain of 5-hydroxytryptamine receptor 6 (P50406 whole entry): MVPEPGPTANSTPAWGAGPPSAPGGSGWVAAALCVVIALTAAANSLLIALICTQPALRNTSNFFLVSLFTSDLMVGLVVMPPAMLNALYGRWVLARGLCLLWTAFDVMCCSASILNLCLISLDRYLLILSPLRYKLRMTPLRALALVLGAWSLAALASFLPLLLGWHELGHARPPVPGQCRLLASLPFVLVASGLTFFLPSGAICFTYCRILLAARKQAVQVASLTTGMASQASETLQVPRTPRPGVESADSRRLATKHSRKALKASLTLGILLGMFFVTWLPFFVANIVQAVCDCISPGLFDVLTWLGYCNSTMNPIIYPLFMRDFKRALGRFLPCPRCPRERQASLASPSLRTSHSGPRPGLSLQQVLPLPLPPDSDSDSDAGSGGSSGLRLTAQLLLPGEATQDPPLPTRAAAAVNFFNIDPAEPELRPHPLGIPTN

CCCCNc1ccc(C(=O)OCCN(C)C)cc1 [TETRACAINE]
Not Active: IC50 [1] | IC50 [2] | IC50 [3] | IC50 [4] | IC50 [5] | IC50 [6]

Cn1c(=O)c2nc[nH]c2n(C)c1=O.O [THEOPHYLLINE]
Not Active: IC50 [1] | IC50 [2] | IC50 [3] | IC50 [4] | IC50 [5] | IC50 [6]

CS(=O)(=O)c1ccc([C@@H](O)[C@@H](CO)NC(=O)C(Cl)Cl)cc1 [THIAMPHENICOL]
Not Active: IC50 [1] | IC50 [2] | IC50 [3] | IC50 [4] | IC50 [5] | IC50 [6]

CCN(CC)CCNC(=O)c1cc(S(C)(=O)=O)ccc1OC [TIAPRIDE]
Not Active: IC50 [1] | IC50 [2] | IC50 [3] | IC50 [4] | IC50 [5] | IC50 [6]

Clc1ccccc1CN1CCc2sccc2C1 [TICLOPIDINE]
Not Active: IC50 [1] | IC50 [2] | IC50 [3] | IC50 [4] | IC50 [5] | IC50 [6]

NC1CCN(c2nc3c(cc2F)c(=O)c(C(=O)O)cn3-c2ccc(F)cc2F)C1 (configuration not stated) [TOSUFLOXACIN]
Not Active: IC50 [1] | IC50 [2] | IC50 [3] | IC50 [4] | IC50 [5] | IC50 [6]

O=C(Nc1ccc(Br)cc1)c1cc(Br)cc(Br)c1O [TRIBROMSALAN]
Not Active: IC50 [1] | IC50 [2] | IC50 [3] | IC50 [4] | IC50 [5] | IC50 [6]

CC(c1cc2ccccc2s1)N(O)C(N)=O (configuration not stated) [ZILEUTON]
Not Active: IC50 [1] | IC50 [2] | IC50 [3] | IC50 [4] | IC50 [5] | IC50 [6]

MANGANESE CHLORIDE ANHYDROUS
Not Active: IC50 [1] | Ki [1] | IC50 [2] | Ki [2] | IC50 [3] | Ki [3] | IC50 [4] | Ki [4] | IC50 [5] | Ki [5] | IC50 [6] | Ki [6]

SODIUM ORTHOVANAD
Not Active: IC50 [1] | Ki [1] | IC50 [2] | Ki [2] | IC50 [3] | Ki [3] | IC50 [4] | Ki [4] | IC50 [5] | Ki [5] | IC50 [6] | Ki [6]
